Source: patent publication US20250282799A1, “SUBSTITUTED PYRIDO[4,3-d]PYRIMIDINES AS KRAS MODULATORS” (Alterome Therapeutics, Inc., priority 2023, published 2025)

Test system: KRAS G12V dependent lung adenocarcinoma cell line, NCI-H441
Test: Cellular pERK (Thr202/Tyr204) FRET/HTRF assay
Format: cell-based
Details: Homo sapiens, NCI-H441, cellular pERK (Thr202/Tyr204) HTRF, NCI-H441 cells
Procedure, shortened: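 NCI-H441, overnight plating → cpd 1 hr, 37 °C/5% CO2; DMSO neg ctrl. Lyse (phosphatase inhibitors), add donor/acceptor Abs, RT incubation, HTRF read. IC50 by curve fit.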

| IC50 | Structure (SMILES) |
| --- | --- |
| < 50 nM | [2H]C([2H])(F)Oc1c(F)ccc2cccc(-c3ncc4c(N5CCCC[C@H]6[C@H](F)[C@H]65)nc(OC[C@]56CC(=C)CN5CCC65CC5)nc4c3F)c12 [Example 407, (R)-7a′-(((8-fluoro-7-(7-fluoro-8-(fluoromethoxy-d2)naphthalen-1-yl)-4-((1S,7R,8S)-8-fluoro-2-azabicyclo[5.1.0]octan-2-yl)pyrido[4,3-d]pyrimidin-2-yl)oxy)methyl)-6′-methylenehexahydrospiro[cyclopropane-1,1′-pyrrolizine]] |
| < 50 nM | [2H]C([2H])(F)Oc1c(F)ccc2cccc(-c3ncc4c(N5CCCC[C@H]6[C@H](F)[C@H]65)nc(OC[C@]56C/C(=C/F)CN5CCC65CC5)nc4c3F)c12 [Example 408, (R,Z)-7a′-(((8-fluoro-7-(7-fluoro-8-(fluoromethoxy-d2)naphthalen-1-yl)-4-((1S,7R,8S)-8-fluoro-2-azabicyclo[5.1.0]octan-2-yl)pyrido[4,3-d]pyrimidin-2-yl)oxy)methyl)-6′-(fluoromethylene)hexahydrospiro [cyclopropane-1,1′-pyrrolizine]] |
| < 50 nM | [2H]C([2H])(F)Oc1c(F)ccc2cc(N)cc(-c3ncc4c(N5CCCC[C@H]6[C@H](F)[C@H]65)nc(OC[C@]56C/C(=C/F)CN5CCC65CC5)nc4c3F)c12 [Example 409, 6-fluoro-4-(8-fluoro-4-((1S,7R,8S)-8-fluoro-2-azabicyclo[5.1.0]octan-2-yl)-2-(((R,Z)-6′-(fluoromethylene)tetrahydrospiro [cyclopropane-1,1′-pyrrolizin]-7a′(5′H)-yl)methoxy)pyrido[4,3-d]pyrimidin-7-yl)-5-(fluoromethoxy-d2)naphthalen-2-amine] |
| < 50 nM | [2H]C([2H])(Oc1nc(N2CCOC[C@H]3[C@H](F)[C@H]32)c2cnc(-c3cc(N)cc4ccc(C)c(C#C)c34)c(F)c2n1)[C@@]12CCCN1[C@H](C)[C@H](F)C2 [Example 410, 5-ethynyl-4-(8-fluoro-2-(((2R,3R,7aS)-2-fluoro-3-methyltetrahydro-1H-pyrrolizin-7a(5H)-yl)methoxy-d2)-4-((1S,7S,8S)-8-fluoro-5-oxa-2-azabicyclo[5.1.0]octan-2-yl)pyrido[4,3-d]pyrimidin-7-yl)-6-methylnaphthalen-2-amine] |
| 500 to 10000 nM | Nc1cc(Cl)c(C(F)(F)F)c(-c2ncc3c(N4CCCC[C@H]5[C@H](F)[C@H]54)nc(OC[C@]45CC(=C(F)F)CN4CCC54CC4)nc3c2F)c1 [Example 411, 3-chloro-5-(2-(((R)-6′-(difluoromethylene)tetrahydrospiro [cyclopropane-1,1′-pyrrolizin]-7a′(5′H)-yl)methoxy)-8-fluoro-4-((1S,7R,8S)-8-fluoro-2-azabicyclo[5.1.0]octan-2-yl)pyrido[4,3-d]pyrimidin-7-yl)-4-(trifluoromethyl)aniline] |
| 500 to 10000 nM | Cc1c(F)c(N)cc(-c2ncc3c(N4CCCC[C@H]5[C@H](F)[C@H]54)nc(OC[C@]45CC(=C(F)F)CN4CCC54CC4)nc3c2F)c1C(F)(F)F [Example 412, 5-(2-(((R)-6′-(difluoromethylene)tetrahydrospiro [cyclopropane-1,1′-pyrrolizin]-7a′(5′H)-yl)methoxy)-8-fluoro-4-((1S,7R,8S)-8-fluoro-2-azabicyclo[5.1.0]octan-2-yl)pyrido[4,3-d]pyrimidin-7-yl)-2-fluoro-3-methyl-4-(trifluoromethyl)aniline] |

More lines, now with the values behind:

| Structure (SMILES) | IC50 |
| --- | --- |
| Cc1c(F)c(N)cc(-c2ncc3c(N4CCCC[C@@H]5[C@@H](F)[C@@H]54)nc(OC[C@@]45CCCN4C/C(=C\F)C5)nc3c2F)c1C(F)(F)F [Example 399, 2-fluoro-5-(8-fluoro-4-((1R,7S,8R)-8-fluoro-2-azabicyclo[5.1.0]octan-2-yl)-2-(((S,Z)-2-(fluoromethylene)tetrahydro-1H-pyrrolizin-7a(5H)-yl)methoxy)pyrido[4,3-d]pyrimidin-7-yl)-3-methyl-4-(trifluoromethyl)aniline] | 500 to 10000 nM |
| [2H]C([2H])(Oc1nc(N2CCOC[C@H]3[C@H](F)[C@H]32)c2c(O)nc(-c3cc(N)cc4ccc(F)c(C#C)c34)c(F)c2n1)[C@@]12CCCN1C[C@H](F)C2 [Example 401, 7-(3-amino-8-ethynyl-7-fluoronaphthalen-1-yl)-8-fluoro-4-((1S,7S,8S)-8-fluoro-5-oxa-2-azabicyclo[5.1.0]octan-2-yl)-2-(((2R,7aS)-2-fluorotetrahydro-1H-pyrrolizin-7a(5H)-yl)methoxy-d2)pyrido[4,3-d]pyrimidin-5-ol] | 500 to 10000 nM |
| C#Cc1c(F)ccc2cccc(-c3ncc4c(N5CCCC[C@H]6[C@H](F)[C@H]65)nc(OC[C@]56C/C(=C/F)CN5CCC65CC5)nc4c3F)c12 [Example 402, (R,Z)-7a′-(((7-(8-Ethynyl-7-fluoronaphthalen-1-yl)-8-fluoro-4-((1S,7R,8S)-8-fluoro-2-azabicyclo[5.1.0]octan-2-yl)pyrido[4,3-d]pyrimidin-2-yl)oxy)methyl)-6′-(fluoromethylene)hexahydrospiro[cyclopropane-1,1′-pyrrolizine]] | < 50 nM |
| C#Cc1c(F)ccc2cc(N)cc(-c3ncc4c(N5CCCC[C@H]6[C@H](F)[C@H]65)nc(OC[C@]56C/C(=C\F)CN5CCC65CC5)nc4c3F)c12 [Example 403, 5-Ethynyl-6-fluoro-4-(8-fluoro-4-((1S,7R,8S)-8-fluoro-2-azabicyclo[5.1.0]octan-2-yl)-2-(((R,E)-6′-(fluoromethylene)tetrahydrospiro[cyclopropane-1,1′-pyrrolizin]-7a′(5′H)-yl)methoxy)pyrido[4,3-d]pyrimidin-7-yl)naphthalen-2-amine] | < 50 nM |
| C#Cc1c(F)ccc2cc(N)cc(-c3ncc4c(N5CCCC[C@H]6[C@H](F)[C@H]65)nc(OC[C@]56C/C(=C/F)CN5CCC65CC5)nc4c3F)c12 [Example 404, 5-Ethynyl-6-fluoro-4-(8-fluoro-4-((1S,7R,8S)-8-fluoro-2-azabicyclo[5.1.0]octan-2-yl)-2-(((R,Z)-6′-(fluoromethylene)tetrahydrospiro[cyclopropane-1,1′-pyrrolizin]-7a′(5′H)-yl)methoxy)pyrido[4,3-d]pyrimidin-7-yl)naphthalen-2-amine] | < 50 nM |
| C#Cc1c(F)ccc2cccc(-c3ncc4c(N5CCCC[C@H]6[C@H](F)[C@H]65)nc(OC[C@]56CC(=C(F)F)CN5CCC65CC5)nc4c3F)c12 [Example 405, (R)-6′-(Difluoromethylene)-7a′-(((7-(8-ethynyl-7-fluoronaphthalen-1-yl)-8-fluoro-4-((1S,7R,8S)-8-fluoro-2-azabicyclo[5.1.0]octan-2-yl)pyrido[4,3-d]pyrimidin-2-yl)oxy)methyl)hexahydrospiro[cyclopropane-1,1′-pyrrolizine]] | < 50 nM |
| Nc1cc(Cl)c(C(F)(F)F)c(-c2ncc3c(N4CCCC[C@H]5[C@H](F)[C@H]54)nc(OC[C@]45C/C(=C/F)CN4CCC54CC4)nc3c2F)c1 [Example 406, 3-chloro-5-(8-fluoro-4-((1S,7R,8S)-8-fluoro-2-azabicyclo[5.1.0]octan-2-yl)-2-(((R,Z)-6′-(fluoromethylene)tetrahydrospiro [cyclopropane-1,1′-pyrrolizin]-7a′(5′H)-yl)methoxy)pyrido[4,3-d]pyrimidin-7-yl)-4-(trifluoromethyl)aniline] | < 50 nM |
